molecular target: recombinant EZH2-641F complex (EZH2 Y641F/EED/SUZ12/RbAp48/AEBP2) (Homo sapiens (Human), UniProt Q15910, Y641F); experiment: EZH2 Histone Methyl Transferase Assay (scintillation proximity assay); format: biochemical; conditions: 350 nM histone peptide substrate, 500 nM 3H-SAM, 3 hours room temperature
How it was run: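 Radiometric SPA with EZH2 Y641F/EED/SUZ12/RbAp48/AEBP2 complex (5 nM pure or 15 nM in-house), 350 nM biotinylated K(Me2) histone peptide and 500 nM [3H]-SAM in Tris pH 9.0, 3 h at room temperature. Compounds were tested at eleven concentrations; EC50 came from non-linear regression.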

Chain of recombinant EZH2-641F complex (EZH2 Y641F/EED/SUZ12/RbAp48/AEBP2) (Q15910 whole entry Y641F): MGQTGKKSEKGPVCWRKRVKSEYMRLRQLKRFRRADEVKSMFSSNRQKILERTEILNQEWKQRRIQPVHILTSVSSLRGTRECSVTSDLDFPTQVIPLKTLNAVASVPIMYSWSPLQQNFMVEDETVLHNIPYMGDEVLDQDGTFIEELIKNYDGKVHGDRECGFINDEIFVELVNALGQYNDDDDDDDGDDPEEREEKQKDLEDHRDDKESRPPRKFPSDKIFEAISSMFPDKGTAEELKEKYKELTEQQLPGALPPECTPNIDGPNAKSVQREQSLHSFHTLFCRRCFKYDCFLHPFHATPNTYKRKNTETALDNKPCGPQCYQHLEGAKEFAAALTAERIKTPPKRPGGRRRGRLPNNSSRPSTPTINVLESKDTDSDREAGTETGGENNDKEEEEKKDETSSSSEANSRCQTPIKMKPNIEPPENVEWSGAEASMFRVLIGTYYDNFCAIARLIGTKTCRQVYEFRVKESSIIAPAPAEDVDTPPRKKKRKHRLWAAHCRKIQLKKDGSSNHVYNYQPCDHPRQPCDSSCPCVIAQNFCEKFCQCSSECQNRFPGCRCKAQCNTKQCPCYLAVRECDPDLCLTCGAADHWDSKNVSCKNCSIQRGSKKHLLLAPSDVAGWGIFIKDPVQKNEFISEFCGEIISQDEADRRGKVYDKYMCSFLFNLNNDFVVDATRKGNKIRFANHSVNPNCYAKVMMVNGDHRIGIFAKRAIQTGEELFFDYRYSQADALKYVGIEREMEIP
Chain of recombinant EZH2-641F complex (EZH2 Y641F/EED/SUZ12/RbAp48/AEBP2) (O75530 whole entry partner): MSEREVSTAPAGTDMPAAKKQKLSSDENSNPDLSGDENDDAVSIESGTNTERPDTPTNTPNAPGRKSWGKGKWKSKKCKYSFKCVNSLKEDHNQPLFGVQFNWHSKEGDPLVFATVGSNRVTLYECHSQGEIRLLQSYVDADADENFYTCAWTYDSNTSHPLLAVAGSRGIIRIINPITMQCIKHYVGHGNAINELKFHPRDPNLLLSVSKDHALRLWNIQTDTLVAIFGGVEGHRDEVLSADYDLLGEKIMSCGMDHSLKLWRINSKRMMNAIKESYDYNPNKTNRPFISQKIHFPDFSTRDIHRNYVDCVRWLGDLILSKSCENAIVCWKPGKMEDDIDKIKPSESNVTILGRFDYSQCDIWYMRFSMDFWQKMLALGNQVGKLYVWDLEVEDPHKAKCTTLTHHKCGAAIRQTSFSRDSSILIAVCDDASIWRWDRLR
Chain of recombinant EZH2-641F complex (EZH2 Y641F/EED/SUZ12/RbAp48/AEBP2) (Q15022 whole entry partner): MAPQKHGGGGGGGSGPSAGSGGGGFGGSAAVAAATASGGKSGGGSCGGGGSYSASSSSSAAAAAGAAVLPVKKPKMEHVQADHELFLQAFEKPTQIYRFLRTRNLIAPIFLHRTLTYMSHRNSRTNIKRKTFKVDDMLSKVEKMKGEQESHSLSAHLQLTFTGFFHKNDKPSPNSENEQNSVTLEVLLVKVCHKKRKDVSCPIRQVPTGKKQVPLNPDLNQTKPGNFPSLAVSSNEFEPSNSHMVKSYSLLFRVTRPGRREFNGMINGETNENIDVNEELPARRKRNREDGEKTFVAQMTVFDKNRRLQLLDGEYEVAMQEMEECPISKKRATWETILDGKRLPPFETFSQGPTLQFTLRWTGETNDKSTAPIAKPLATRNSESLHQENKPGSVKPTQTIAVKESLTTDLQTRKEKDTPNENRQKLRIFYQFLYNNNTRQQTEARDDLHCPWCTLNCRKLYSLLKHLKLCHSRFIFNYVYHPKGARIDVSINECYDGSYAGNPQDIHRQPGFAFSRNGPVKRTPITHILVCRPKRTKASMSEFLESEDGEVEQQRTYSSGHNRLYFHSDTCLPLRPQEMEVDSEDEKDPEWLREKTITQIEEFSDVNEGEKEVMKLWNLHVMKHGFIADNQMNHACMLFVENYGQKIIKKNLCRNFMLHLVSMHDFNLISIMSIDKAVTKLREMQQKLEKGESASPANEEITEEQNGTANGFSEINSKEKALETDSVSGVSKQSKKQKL
Chain of recombinant EZH2-641F complex (EZH2 Y641F/EED/SUZ12/RbAp48/AEBP2) (Q09028 whole entry partner): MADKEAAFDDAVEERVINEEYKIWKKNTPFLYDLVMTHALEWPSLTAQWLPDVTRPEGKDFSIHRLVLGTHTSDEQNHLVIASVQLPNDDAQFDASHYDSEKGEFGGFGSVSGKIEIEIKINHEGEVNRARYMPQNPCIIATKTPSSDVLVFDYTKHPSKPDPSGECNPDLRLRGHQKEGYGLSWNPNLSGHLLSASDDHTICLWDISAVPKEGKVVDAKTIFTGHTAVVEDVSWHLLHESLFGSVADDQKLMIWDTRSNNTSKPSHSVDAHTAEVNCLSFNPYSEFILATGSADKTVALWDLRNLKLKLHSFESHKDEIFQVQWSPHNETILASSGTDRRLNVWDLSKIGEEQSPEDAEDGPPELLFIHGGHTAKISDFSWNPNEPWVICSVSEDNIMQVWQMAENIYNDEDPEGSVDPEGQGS
Chain of recombinant EZH2-641F complex (EZH2 Y641F/EED/SUZ12/RbAp48/AEBP2) (Q6ZN18 whole entry partner): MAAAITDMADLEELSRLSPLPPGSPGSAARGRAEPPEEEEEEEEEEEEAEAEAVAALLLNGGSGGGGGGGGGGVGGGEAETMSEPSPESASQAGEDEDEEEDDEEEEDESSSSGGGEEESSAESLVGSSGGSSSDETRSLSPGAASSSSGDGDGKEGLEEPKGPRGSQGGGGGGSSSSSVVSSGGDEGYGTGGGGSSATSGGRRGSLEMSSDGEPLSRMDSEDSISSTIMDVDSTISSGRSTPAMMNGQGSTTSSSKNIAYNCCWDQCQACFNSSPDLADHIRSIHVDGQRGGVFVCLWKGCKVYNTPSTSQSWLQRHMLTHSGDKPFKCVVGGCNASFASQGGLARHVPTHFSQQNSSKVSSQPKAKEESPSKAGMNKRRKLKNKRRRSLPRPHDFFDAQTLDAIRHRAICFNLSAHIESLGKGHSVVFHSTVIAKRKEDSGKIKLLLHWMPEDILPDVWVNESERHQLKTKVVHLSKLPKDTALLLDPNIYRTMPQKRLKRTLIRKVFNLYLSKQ

Row | IC50 [µM] | SMILES
1 | 0.5 to 1 | Cc1cc(C)c(CNC(=O)c2cc(-c3ccc(N4CCNCC4)cc3)c3c(c2)[C@@H]2CCC[C@]2(C)O3)c(=O)[nH]1 (racemic) [Example 68, rac-(3aS,8bS)—N-((4,6-Dimethyl-2-oxo-1,2-dihydropyridin-3-yl)methyl)-3a-methyl-5-(4-(piperazin-1-yl)phenyl)-2,3,3a,8b-tetrahydro-1H-cyclopenta[b]benzofuran-7-carboxamide]
2 | > 1 | Cc1cc(C)c(CNC(=O)c2cc(-c3ccc(N4CCNCC4)nc3)c3c(c2)C(C)CO3)c(=O)[nH]1 (centres unmarked) [Example 29, N-((4,6-Dimethyl-2-oxo-1,2-dihydropyridin-3-yl)methyl)-3-methyl-7-(6-(piperazin-1-yl)pyridin-3-yl)-2,3-dihydrobenzofuran-5-carboxamide]
3 | 0.5 to 1 | COc1ccc(-c2cc(C(=O)NCc3c(C)cc(C)[nH]c3=O)cc3c2O[C@@]2(C)CCC[C@@H]32)cn1 (racemic) [Example 66, rac-(3aS,8bS)—N-((4,6-Dimethyl-2-oxo-1,2-dihydropyridin-3-yl)methyl)-5-(6-methoxypyridin-3-yl)-3a-methyl-2,3,3a,8b-tetrahydro-1H-cyclopenta[b]benzofuran-7-carboxamide]
4 | > 1 | Cc1cc(C)c(CNC(=O)c2cc3c(c(-c4cnc(N5CCN(C(=O)OC(C)(C)C)CC5)nc4)c2)OC2(CCCC2)C3)c(=O)[nH]1 [Example 73, tert-Butyl 4-(5-(5-(((4,6-dimethyl-2-oxo-1,2-dihydropyridin-3-yl)methyl)carbamoyl)-3H-spiro[benzofuran-2,1′-cyclopentan]-7-yl)pyrimidin-2-yl)piperazine-1-carboxylate]
5 | > 1 | Cc1cc(C)c(CNC(=O)c2cc(Br)c3c(c2)[C@@H](C)[C@H](C)O3)c(=O)[nH]1 (racemic) [Example 40, rac-(2S,3R)-7-bromo-N-((4,6-dimethyl-2-oxo-1,2-dihydropyridin-3-yl)methyl)-2,3-dimethyl-2,3-dihydrobenzofuran-5-carboxamide]
6 | > 1 | Cc1cc(C)c(CNC(=O)c2ccc3c(c2)CC(C)(C)O3)c(=O)[nH]1 [Example 2, N-((4,6-Dimethyl-2-oxo-1,2-dihydropyridin-3-yl)methyl)-2,2-dimethyl-2,3-dihydrobenzofuran-5-carboxamide]
7 | > 1 | COc1ccc(-c2cc(C(=O)NCc3c(C)cc(C)[nH]c3=O)cc3c2OC2(CCCC2)C3)cn1 [Example 71, N-((4,6-Dimethyl-2-oxo-1,2-dihydropyridin-3-yl)methyl)-7-(6-methoxypyridin-3-yl)-3H-spiro[benzofuran-2,1′-cyclopentane]-5-carboxamide]
8 | > 1 | Cc1cc(C)c(CNC(=O)c2cc(-c3ccc(N4CCNCC4)nc3)c3c(c2)C2(CCCC2)CO3)c(=O)[nH]1 [Example 77, N-((4,6-Dimethyl-2-oxo-1,2-dihydropyridin-3-yl)methyl)-7-(6-(piperazin-1-yl)pyridin-3-yl)-2H-spiro[benzofuran-3,1′-cyclopentane]-5-carboxamide]
9 | > 1 | Cc1cc(C)c(CNC(=O)c2cc3c(c(-c4ccc(N5CCNCC5)nc4)c2)OCC3)c(=O)[nH]1 [Example 38, N-((4,6-Dimethyl-2-oxo-1,2-dihydropyridin-3-yl)methyl)-7-(6-(piperazin-1-yl)pyridin-3-yl)-2,3-dihydrobenzofuran-5-carboxamide]
10 | 0.5 to 1 | C=C(C)C1(C)Cc2cc(C(=O)NCc3c(C)cc(C)[nH]c3=O)cc(-c3ccc(OC)nc3)c2O1 (centres unmarked) [Example 83, N-((4,6-dimethyl-2-oxo-1,2-dihydropyridin-3-yl)methyl)-7-(6-methoxypyridin-3-yl)-2-methyl-2-(prop-1-en-2-yl)-2,3-dihydrobenzofuran-5-carboxamide]
11 | > 1 | COc1ccc(-c2cc(C(=O)NCc3c(C)cc(C)[nH]c3=O)cc3c2OC(C)CCC3)cn1 (centres unmarked) [Example 52, N-((4,6-Dimethyl-2-oxo-1,2-dihydropyridin-3-yl)methyl)-9-(6-methoxypyridin-3-yl)-2-methyl-2,3,4,5-tetrahydrobenzo[b]oxepine-7-carboxamide]
12 | > 1 | Cc1cc(C)c(CNC(=O)c2cc3c(c(-c4ccc(CN5CCOCC5)cc4)c2)OC(C)C3)c(=O)[nH]1 (centres unmarked) [Example 35, N-((4,6-Dimethyl-2-oxo-1,2-dihydropyridin-3-yl)methyl)-2-methyl-7-(4-(morpholinomethyl)phenyl)-2,3-dihydrobenzofuran-5-carboxamide]
13 | > 1 | Cc1cc(C)c(CNC(=O)c2cc3c(c(-c4ccc(CN5CCCCC5)cc4)c2)OC2(CCCC2)C3)c(=O)[nH]1 [Example 74, N-((4,6-Dimethyl-2-oxo-1,2-dihydropyridin-3-yl)methyl)-7-(4-(piperidin-1-ylmethyl)phenyl)-3H-spiro[benzofuran-2,1′-cyclopentane]-5-carboxamide]
14 | > 1 | Cc1cc(C)c(CNC(=O)c2cc3c(c(-c4ccc(N5CCNCC5)nc4)c2)OC(C)CCC3)c(=O)[nH]1 (centres unmarked) [Example 51, N-((4,6-Dimethyl-2-oxo-1,2-dihydropyridin-3-yl)methyl)-2-methyl-9-(6-(piperazin-1-yl)pyridin-3-yl)-2,3,4,5-tetrahydrobenzo[b]oxepine-7-carboxamide]
15 | > 1 | Cc1cc(C)c(CNC(=O)c2cc3c(c(-c4ccc(N5CCNCC5)nc4)c2)OCC(C)CC3)c(=O)[nH]1 (centres unmarked) [Example 55, N-((4,6-Dimethyl-2-oxo-1,2-dihydropyridin-3-yl)methyl)-3-methyl-9-(6-(piperazin-1-yl)pyridin-3-yl)-2,3,4,5-tetrahydrobenzo[b]oxepine-7-carboxamide]
16 | > 1 | Cc1cc(C)c(CNC(=O)c2cc3c(c(-c4ccc(CN5CCOCC5)cc4)c2)OC(C)(C)C3)c(=O)[nH]1 [Example 10, N-((4,6-Dimethyl-2-oxo-1,2-dihydropyridin-3-yl)methyl)-2,2-dimethyl-7-(4-(morpholinomethyl)phenyl)-2,3-dihydrobenzofuran-5-carboxamide]
17 | > 1 | CCC1(C)Cc2cc(C(=O)NCc3c(C)cc(C)[nH]c3=O)cc(-c3ccc(C)cc3)c2O1 (centres unmarked) [Example 63, N-((4,6-Dimethyl-2-oxo-1,2-dihydropyridin-3-yl)methyl)-2-ethyl-2-methyl-7-(p-tolyl)-2,3-dihydrobenzofuran-5-carboxamide]
18 | 0.5 to 1 | COc1ccc(-c2cc(C(=O)NCc3c(C)cc(C)[nH]c3=O)cc3c2OC(C)(C)C3)cn1 [Example 14, N-((4,6-Dimethyl-2-oxo-1,2-dihydropyridin-3-yl)methyl)-7-(6-methoxypyridin-3-yl)-2,2-dimethyl-2,3-dihydrobenzofuran-5-carboxamide]
19 | > 1 | CCC1(C)Cc2cc(C(=O)NCc3c(C)cc(C)[nH]c3=O)cc(-c3ccc(OC)nc3)c2O1 (centres unmarked) [Example 61, N-((4,6-Dimethyl-2-oxo-1,2-dihydropyridin-3-yl)methyl)-2-ethyl-7-(6-methoxypyridin-3-yl)-2-methyl-2,3-dihydrobenzofuran-5-carboxamide]
20 | > 1 | Cc1cc(C)c(CNC(=O)c2cc(Br)c3c(c2)CC2(CCCC2)O3)c(=O)[nH]1 [Example 70, 7-Bromo-N-((4,6-dimethyl-2-oxo-1,2-dihydropyridin-3-yl)methyl)-3H-spiro[benzofuran-2,1′-cyclopentane]-5-carboxamide]
